The values below come from patent US20230303570A1, “KINASE INHIBITORS AND USES THEREOF” (ABM Therapeutics Corporation, priority 2020, published 2023).

The target of one data set is T1, Axl (Homo sapiens, UniProt P30530).
T1 sequence (P30530 26-894): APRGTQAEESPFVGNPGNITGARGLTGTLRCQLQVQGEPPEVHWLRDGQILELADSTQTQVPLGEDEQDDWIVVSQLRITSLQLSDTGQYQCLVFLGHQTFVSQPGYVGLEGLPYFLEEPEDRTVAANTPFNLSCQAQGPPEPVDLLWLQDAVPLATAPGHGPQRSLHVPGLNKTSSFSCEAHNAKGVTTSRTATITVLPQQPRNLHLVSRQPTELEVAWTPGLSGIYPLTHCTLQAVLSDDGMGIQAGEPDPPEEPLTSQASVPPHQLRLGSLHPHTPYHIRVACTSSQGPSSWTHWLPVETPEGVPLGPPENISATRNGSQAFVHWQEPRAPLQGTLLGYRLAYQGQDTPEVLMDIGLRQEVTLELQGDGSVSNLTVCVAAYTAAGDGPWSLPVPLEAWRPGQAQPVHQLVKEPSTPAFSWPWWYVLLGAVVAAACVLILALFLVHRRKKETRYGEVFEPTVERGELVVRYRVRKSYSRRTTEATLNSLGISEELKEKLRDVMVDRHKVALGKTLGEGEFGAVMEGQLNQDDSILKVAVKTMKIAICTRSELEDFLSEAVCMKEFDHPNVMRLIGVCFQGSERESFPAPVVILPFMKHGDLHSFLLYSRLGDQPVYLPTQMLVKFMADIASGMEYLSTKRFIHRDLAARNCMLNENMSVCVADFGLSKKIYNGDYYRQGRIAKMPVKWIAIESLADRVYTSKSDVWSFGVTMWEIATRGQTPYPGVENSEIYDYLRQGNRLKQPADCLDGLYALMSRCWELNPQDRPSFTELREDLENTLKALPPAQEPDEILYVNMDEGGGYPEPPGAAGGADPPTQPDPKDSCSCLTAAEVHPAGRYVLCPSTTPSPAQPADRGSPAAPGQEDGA
Kind of data set: AXL kinase mobility shift assay. Format: biochemical. The procedure:
(§1) The effect of the compounds on the activity of cKit, RET and AXL kinases were assessed by Mobility shift assay. • 1. 1× kinase base buffer and stop buffer for testing kinases were prepared • 1-1) 1× Kinase base buffer (50 mM HEPES, pH 7.5, 0.01% Triton X-100) • 1-2) Stop buffer (100 mM HEPES, pH 7.5, 0.015% Brij-35, 0.2% Coating Reagent #3, 50 mM EDTA) • 2. Compound and assay plate preparation: the compound was diluted to 50× of the final desired highest inhibitor concentration in reaction by 100% DMSO. 100 μl of this compound dilution was transferred to a well in a 96-well plate. For example, if the highest desired concentration was 5 μM, then 250 μM of compound DMSO solution was prepared in this step. For all compounds, the compound was serially diluted by transferring 10 μl to 70 μl of 100 DMSO in the next well and so forth for a total of 5 concentrations. 100 μl of 100% DMSO was added to two empty wells for no compound control and no enzyme control in the same 96-well plate. The plate was labeled as source plate. The intermediate plate was prepared by transferring 10 μl of compound from source plate to a new 96-well plate as the intermediate plate, adding 90 μl of 1× kinase buffer to each well of the intermediate plate, mixing the compounds in intermediate plate for 10 min on shaker. 5 μl of each well from the 96-well intermediate plate were transferred to a 384-well plate in duplicates. For example, A1 of the 96-well plate was transferred to A1 and A2 of the 384-well plate. A2 of the 96-well plate was transferred to A3 and A4 of the 384-well plate, and so on. • 4. Kinase reaction: The assay plate already contained 5 μl of compound in 10% DMSO. A 2.5× enzyme solution was prepared by adding kinases (cKit, RET, or AXL) and DTT in 1× kinase base buffer. 2.5× enzyme solution was transferred to the assay plate (by adding 10 μl of 2.5× enzyme solution to each well of the 384-well assay plate). The plate was incubated at room temperature for 10 min. 2.5× peptide solution was prepared by adding FAM-labeled peptide, ATP, MgCl2 in the 1× kinase base buffer. 2.5× peptide solution was added to the assay plate by adding 10 μl of 2.5× peptide solution to each well of the 384-well assay plate. The plate was incubated at 28° C. for the specified period of time. 25 μl of stop buffer was added to stop reaction. Data was collected on Caliper.

The target of the next data set is HPK1 (MAP4K1) (Homo sapiens, UniProt Q92918). Briefly: HPK1 (MAP4K1) kinase Lantha screen assay. Format: biochemical. The method, boiled down:
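Recombinant MAP4K1 preincubated 10 min with compound (6-point dilution, duplicates) in 50 mM HEPES pH 7.5, 10 mM MgCl2, then reacted with Fluorescein-PKC substrate and ATP for 90 min at room temperature. Antibody detection solution stopped reaction; after 60 min, TR-FRET read at ex 340 nm, em 520/495 nm.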

Data set [1] can be described thus: Mouse pharmacokinetics study (intravenous and oral). Format: in vivo. Conditions: CD-1 mice. An excerpt:
The test articles were formulated in […] Hydroxypropyl-beta-cyclodextrin, either as a clear solution or fine suspension.

The target in a further data set is c-Kit (Homo sapiens, UniProt P10721). Kind of data set: cKit kinase mobility shift assay. Format: biochemical. Here is the method: as §1
c-Kit, sequence (P10721 26-976): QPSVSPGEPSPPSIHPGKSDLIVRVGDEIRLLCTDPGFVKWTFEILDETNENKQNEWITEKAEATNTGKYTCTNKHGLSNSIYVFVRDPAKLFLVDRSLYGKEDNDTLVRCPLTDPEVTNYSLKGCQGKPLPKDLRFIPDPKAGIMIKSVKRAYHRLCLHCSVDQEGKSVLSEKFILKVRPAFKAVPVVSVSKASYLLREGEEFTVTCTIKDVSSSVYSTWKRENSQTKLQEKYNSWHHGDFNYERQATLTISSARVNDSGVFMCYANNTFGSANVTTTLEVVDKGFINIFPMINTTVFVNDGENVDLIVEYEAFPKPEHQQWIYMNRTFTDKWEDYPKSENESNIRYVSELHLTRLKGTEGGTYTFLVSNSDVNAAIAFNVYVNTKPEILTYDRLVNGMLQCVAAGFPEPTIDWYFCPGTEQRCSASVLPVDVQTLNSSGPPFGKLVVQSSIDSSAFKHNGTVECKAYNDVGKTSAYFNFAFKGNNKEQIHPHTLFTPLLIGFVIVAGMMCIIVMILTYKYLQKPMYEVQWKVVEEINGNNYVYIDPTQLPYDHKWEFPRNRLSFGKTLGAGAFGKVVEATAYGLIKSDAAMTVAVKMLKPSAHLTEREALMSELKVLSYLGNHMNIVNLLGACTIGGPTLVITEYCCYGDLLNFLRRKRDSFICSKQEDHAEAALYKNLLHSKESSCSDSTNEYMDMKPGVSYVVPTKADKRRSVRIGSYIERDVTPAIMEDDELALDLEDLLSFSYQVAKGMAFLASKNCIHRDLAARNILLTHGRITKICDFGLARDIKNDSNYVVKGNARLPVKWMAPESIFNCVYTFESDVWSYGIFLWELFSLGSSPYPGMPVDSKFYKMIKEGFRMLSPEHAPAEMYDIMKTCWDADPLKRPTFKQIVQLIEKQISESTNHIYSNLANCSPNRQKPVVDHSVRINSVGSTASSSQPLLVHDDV

HPK1 (MAP4K1), sequence (Q92918 whole entry, species assumed): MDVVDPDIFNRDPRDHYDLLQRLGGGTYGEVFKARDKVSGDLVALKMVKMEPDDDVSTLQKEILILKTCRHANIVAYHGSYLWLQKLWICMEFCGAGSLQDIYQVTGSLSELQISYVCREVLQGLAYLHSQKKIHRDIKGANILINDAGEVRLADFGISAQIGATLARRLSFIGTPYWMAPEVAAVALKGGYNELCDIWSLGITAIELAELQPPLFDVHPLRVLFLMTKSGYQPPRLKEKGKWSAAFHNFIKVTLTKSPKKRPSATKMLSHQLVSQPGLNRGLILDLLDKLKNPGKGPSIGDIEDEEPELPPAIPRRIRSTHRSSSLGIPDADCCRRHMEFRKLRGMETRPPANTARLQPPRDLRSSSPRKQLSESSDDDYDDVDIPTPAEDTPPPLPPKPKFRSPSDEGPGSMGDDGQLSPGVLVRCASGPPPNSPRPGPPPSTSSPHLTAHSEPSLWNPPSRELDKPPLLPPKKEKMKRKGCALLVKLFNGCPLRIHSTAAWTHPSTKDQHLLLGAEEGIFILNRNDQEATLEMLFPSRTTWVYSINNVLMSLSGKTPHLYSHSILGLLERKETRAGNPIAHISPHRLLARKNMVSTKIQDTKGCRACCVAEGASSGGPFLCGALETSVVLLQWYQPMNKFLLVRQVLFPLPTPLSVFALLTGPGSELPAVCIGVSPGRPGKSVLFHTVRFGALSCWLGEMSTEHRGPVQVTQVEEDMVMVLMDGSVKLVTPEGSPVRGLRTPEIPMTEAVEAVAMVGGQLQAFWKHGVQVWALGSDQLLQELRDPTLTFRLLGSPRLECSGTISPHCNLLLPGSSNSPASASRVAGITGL

The term IC50 denotes the concentration needed to halve the response being measured. For `CNc1ncc2c(n1)N1CCN=C1C(c1ccc(C(=O)Nc3cc(C(F)(F)F)ccn3)c(F)c1)=C2` [Compound 270, 2-fluoro-4-(2-(methylamino)-8,9-dihydroimidazo[1′,2′:1,6]pyrido[2,3-d]pyrimidin-6-yl)-N-(4-(trifluoromethyl)pyridin-2-yl)benzamide], on Axl, the half-inhibitory concentration (IC50) was greater than 10 µM.
`CNc1ncc2c(n1)N1CCN=C1C(c1c(C)ccc(NS(=O)(=O)c3ccccc3C(F)(F)F)c1F)=C2` [Compound 298, N-(2-fluoro-4-methyl-3-(2-(methylamino)-8,9-dihydroimidazo[1′,2′:1,6]pyrido[2,3-d]pyrimidin-6-yl)phenyl)-2-(trifluoromethyl)benzenesulfonamide]: the IC50 on Axl was greater than 10 µM.
Still for that read-out and setting: next, `CNc1ncc2c(n1)N1CCN=C1C(c1ccc(C(=O)Nc3cc(C(F)(F)F)ccn3)cc1)=C2` [Compound 273, 4-(2-(methylamino)-8,9-dihydroimidazo[1′,2′:1,6]pyrido[2,3-d]pyrimidin-6-yl)-N-(4-(trifluoromethyl)pyridin-2-yl)benzamide]: 0.1 to 10 µM.
As to `CNc1ncc2c(n1)N1CCN=C1C(c1cc(NS(=O)(=O)c3ccccc3Cl)c(F)cc1C)=C2` [Compound 286, 2-chloro-N-(2-fluoro-4-methyl-5-(2-(methylamino)-8,9-dihydroimidazo[1′,2′:1,6]pyrido[2,3-d]pyrimidin-6-yl)phenyl)benzenesulfonamide], the IC50 on Axl was greater than 10 µM.
By half-life is commonly meant how long it takes for the measured level to halve. As usually defined, the AUC is the area under the concentration-time curve, a measure of exposure. Low readings indicate less exposure, high ones more exposure. One may read the Cmax as the highest concentration seen after dosing. One may read the Tmax as the time from dosing to the highest level. Regarding `Cc1cc(F)c(NC(=O)c2cc(C(F)(F)F)ccn2)cc1C1=Cc2cnc(NC3COC3)nc2N2CCN=C12` [Compound 178, N-(2-fluoro-4-methyl-5-(2-(oxetan-3-ylamino)-8,9-dihydroimidazo[1′,2′:1,6]pyrido[2,3-d]pyrimidin-6-yl)phenyl)-4-(trifluoromethyl)picolinamide], the half-maximal inhibitory concentration (IC50) against HPK1 (MAP4K1) was less than 0.1 µM. This compound came in with a F in data set [1] (PO 25 mg/kg) of 66.7 ± 14.3%. In data set [1] (mouse, plasma, IV 5 mg/kg), the Vd is 4.06 ± 0.37 L/kg and the half-life was 2.76 ± 0.22 h. Besides, the clearance in data set [1] (mouse, plasma, IV 5 mg/kg, read-out: Clp) amounted to 17 ± 0.3 mL/min/kg. Moreover, in data set [1] (mouse, plasma, PO 25 mg/kg), the AUC came out at 16300 ± 3490 ng·h/mL, the Cmax is 2560 ± 505 ng/mL and the Tmax was 2 h. The IC50 at c-Kit was in the range of 0.1 to 10 µM.
For the compound `CNc1ncc2c(n1)N1CCN=C1C(c1cc(NS(=O)(=O)c3ccccn3)c(F)cc1C)=C2` [Compound 292, N-(2-fluoro-4-methyl-5-(2-(methylamino)-8,9-dihydroimidazo[1′,2′:1,6]pyrido[2,3-d]pyrimidin-6-yl)phenyl)pyridine-2-sulfonamide], on Axl, the IC50 is greater than 10 µM.
Still for that read-out and setting: to `CNc1ncc2c(n1)N1CCN=C1C(c1c(C)ccc(NS(=O)(=O)c3c(Cl)cccc3Cl)c1F)=C2` [Compound 296, 2,6-dichloro-N-(2-fluoro-4-methyl-3-(2-(methylamino)-8,9-dihydroimidazo[1′,2′:1,6]pyrido[2,3-d]pyrimidin-6-yl)phenyl)benzenesulfonamide] belongs greater than 10 µM.
In the case of `Cc1ccc(NC(=O)c2cc(C(C)(C)F)ccn2)cc1C1=Cc2cnc(Nc3cnn(C)c3)nc2N2CCN=C12` [Compound 196, 4-(2-fluoropropan-2-yl)-N-(4-methyl-3-(2-((1-methyl-1H-pyrazol-4-yl)amino)-8,9-dihydroimidazo[1′,2′:1,6]pyrido[2,3-d]pyrimidin-6-yl)phenyl)picolinamide], in data set [1] (mouse, plasma, PO 25 mg/kg), the exposure (AUC) came out at 11300 ± 3010 ng·h/mL, the Cmax was 1060 ± 108 ng/mL and the Tmax turned out to be 1.33 ± 0.58 h. Further, the IC50 on c-Kit was less than 0.1 µM.
For the compound `Cc1ccc(Nc2ncc3c(n2)N2CCN=C2C(c2cc(NC(=O)c4cn(C(C)C)c(=O)n(-c5ccc(F)cc5)c4=O)ccc2C)=C3)cn1` [Compound 266, 3-(4-fluorophenyl)-1-isopropyl-N-(4-methyl-3-(2-((6-methylpyridin-3-yl)amino)-8,9-dihydroimidazo[1′,2′:1,6]pyrido[2,3-d]pyrimidin-6-yl)phenyl)-2,4-dioxo-1,2,3,4-tetrahydropyrimidine-5-carboxamide], the half-maximal inhibitory concentration (IC50) on Axl is greater than 10 µM.
Still for that read-out and setting: to `CNc1ncc2c(n1)N1CCN=C1C(c1ccc(C(=O)Nc3ccccc3Cl)cc1)=C2` [Compound 275, N-(2-chlorophenyl)-4-(2-(methylamino)-8,9-dihydroimidazo[1′,2′:1,6]pyrido[2,3-d]pyrimidin-6-yl)benzamide] belongs 0.1 to 10 µM; to `CNc1ncc2c(n1)N1CCN=C1C(Oc1ccc(NC(=O)C3(C(=O)Nc4ccc(F)cc4)CC3)cc1)=C2` [Compound 345, N-(4-fluorophenyl)-N-(4-((2-(methylamino)-8,9-dihydroimidazo[1′,2′:1,6]pyrido[2,3-d]pyrimidin-6-yl)oxy)phenyl)cyclopropane-1,1-dicarboxamide], 0.1 to 10 µM; to `CNc1ncc2c(n1)N1CCN=C1C(c1cc(NS(=O)(=O)Cc3ccccc3)c(F)cc1C)=C2` [Compound 293, N-(2-fluoro-4-methyl-5-(2-(methylamino)-8,9-dihydroimidazo[1′,2′:1,6]pyrido[2,3-d]pyrimidin-6-yl)phenyl)-1-phenylmethanesulfonamide], greater than 10 µM.
On the same count and under the same terms, next, `Cc1ccc(NS(=O)(=O)c2ccccc2Cl)c(F)c1C1=Cc2cnc(NC3COC3)nc2N2CCN=C12` [Compound 303, 2-chloro-N-(2-fluoro-4-methyl-3-(2-(oxetan-3-ylamino)-8,9-dihydroimidazo[1′,2′:1,6]pyrido[2,3-d]pyrimidin-6-yl)phenyl)benzenesulfonamide]: greater than 10 µM; `CNc1ncc2c(n1)N1CCN=C1C(c1c(C)ccc(NS(=O)(=O)c3ccccc3OC(F)(F)F)c1F)=C2` [Compound 299, N-(2-fluoro-4-methyl-3-(2-(methylamino)-8,9-dihydroimidazo[1′,2′:1,6]pyrido[2,3-d]pyrimidin-6-yl)phenyl)-2-(trifluoromethoxy)benzenesulfonamide]: greater than 10 µM; `CNc1ncc2c(n1)N1CCN=C1C(c1c(C)ccc(NS(=O)(=O)c3c(F)cccc3F)c1F)=C2` [Compound 297, 2,6-difluoro-N-(2-fluoro-4-methyl-3-(2-(methylamino)-8,9-dihydroimidazo[1′,2′:1,6]pyrido[2,3-d]pyrimidin-6-yl)phenyl)benzenesulfonamide]: greater than 10 µM.
Regarding `Cc1ccc(NS(=O)(=O)c2cc(F)ccc2F)c(F)c1C1=Cc2cnc(NC3COC3)nc2N2CCN=C12` [Compound 302, 2,5-difluoro-N-(2-fluoro-4-methyl-3-(2-(oxetan-3-ylamino)-8,9-dihydroimidazo[1′,2′:1,6]pyrido[2,3-d]pyrimidin-6-yl)phenyl)benzenesulfonamide], at Axl, the half-inhibitory concentration (IC50) is greater than 10 µM.
